According to US11318141B2, “Methods and compositions related to STK1-targeted small molecules as antibiotic resistance breakers” (Ohio State Innovation Foundation, priority 2017, dated 2022):

Biological target: S. aureus STKK1 (the soluble kinase domain of STK1, 280 aa) (Staphylococcus aureus, UniProt A0ABF7PGK0)
Assay: In vitro kinase assay: inhibition of autophosphorylation of recombinant STKK1 (γ32P-ATP)
Type: biochemical
Details: after 5 min pre-incubation
Procedure: For the present study, recombinant His-tag-STKK1 was created along with part of the adjacent juxta-membrane domain (1-280 aa) using the pET14b vector system and specific primers (Table-1 and Table-2) as described previously. The recombinant proteins were expressed in BL21 DE3 (pLysS) and purified using Ni^+2-NTA-affinity chromatography, dialyzed against 10 mM Tris/HCl, pH 7.5, and stored as 10% glycerol stock (500 μg/ml) at −20° C. as described previously. In vitro kinase assays were performed using 2 μg STKK1 in the presence of 1 μCi γ^32P-ATP (specific activity 3000 Ci/mMol, PerkinElmer) at 30° C. for 45 min in a final volume of 30 μl phosphorylation buffer (50 mM Tris/HCl, pH7.5, 1 mM dithiothreitol, 5 mM MgCl2, and/or 5 mM MnCl2). The inhibition of autophosphorylation of STKK1 was carried out using this assay in the presence and absence of (50 μM) individual members of the 32 prescreened small molecule compound library. Phosphorylated proteins were separated by SDS-PAGE and subsequently identified by using Coomassie stain and autoradiography. The individual phosphorylated protein bands were then excised and subjected to radioactive counting using beta-scintillation counter for quantitative analysis. Experiments were repeated at least three times for statistical analysis.

Chain of S. aureus STKK1 (the soluble kinase domain of STK1, 280 aa) (A0ABF7PGK0 entry or part of it): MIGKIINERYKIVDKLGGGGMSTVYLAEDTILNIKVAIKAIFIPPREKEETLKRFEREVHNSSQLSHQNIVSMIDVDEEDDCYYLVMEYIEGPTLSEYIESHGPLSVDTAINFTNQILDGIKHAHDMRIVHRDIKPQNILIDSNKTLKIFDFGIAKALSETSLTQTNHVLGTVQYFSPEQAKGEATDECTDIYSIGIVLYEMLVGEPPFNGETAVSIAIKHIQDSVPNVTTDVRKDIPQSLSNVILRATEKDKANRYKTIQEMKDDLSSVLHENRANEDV

Q: For `COC(=O)c1ccc2c(=O)[nH]c3c(C(=O)Nc4ccccc4)sc(=S)n3c2c1` [Inh2-B1, Methyl 5-oxo-3-(phenylcarbamoyl)-1-thioxo-4,5dihydro[1,3]thiazolo[3,4-a]quinazoline-8-carboxylate], which IC50 is on record?
A: 49 µM
